This test deals with B cell. In words: B cell proliferation. It is filed as cell-based.

By EC50 is commonly meant the concentration giving half of the maximal effect. The low end stands for a more potent agent, the high end for a less potent agent. As to `Cc1ccccc1-n1c(Cn2nc(I)c3c(N)ncnc32)cc2ccccc2c1=O` [Compound 31], the EC50 was below 1000 nM.

Compound `Cc1cccc2cc(Cn3nc(-c4ccc5oc(N)nc5c4)c4c(N)ncnc43)n(C3CC3)c(=O)c12` [Compound 201] registered an EC50 below 100 nM. With `Cc1ccccc1-n1c(Cn2nc(-c3ccc(F)c(O)c3)c3c(N)ncnc32)cc2ccccc2c1=O` [Compound 54] the figure was below 100 nM; with `Cc1cccc2cc(Cn3nc(CF)c4c(N)ncnc43)n(-c3ccccc3)c(=O)c12` [Compound 311], below 100 nM. The same measure for `Cc1cccc2cc([C@@H](C)Nc3ncnc4[nH]cnc34)n(C3CC3)c(=O)c12` [Compound 199]: above 10000 nM; for `CC(C)n1c(Cn2nc(-c3cc(O)cc(F)c3)c3c(N)ncnc32)cc2ccccc2c1=O` [Compound 136]: below 100 nM; for `Cc1cccc2cc(C(C)Nc3ncnc4[nH]cnc34)n(C3CCC3)c(=O)c12` (stereo not drawn) [Compound 215]: below 100 nM.

In turn, `Cc1ccccc1-n1c(Cn2nc(-c3cc(O)cc(F)c3)c3c(N)ncnc32)cc2ccccc2c1=O` [Compound 33] displayed an EC50 below 100 nM.

As for `COc1ccccc1-n1c(Cn2nc(I)c3c(N)ncnc32)cc2cccc(C)c2c1=O` [Compound 70], the EC50 was below 1000 nM. The same measure for `Cc1ccccc1-n1c(Cn2nc(-c3cn[nH]c3)c3c(N)ncnc32)cc2ccccc2c1=O` [Compound 187]: below 100 nM.

`Cc1cccc2cc(Cn3nc(C#C[C@@H](C)O)c4c(N)ncnc43)n(-c3ccccc3O)c(=O)c12` [Compound 91] yielded a 50% effective concentration (EC50) below 1000 nM. With `Cc1ccccc1-n1c(Cn2nc(-c3cn[nH]c3)c3c(N)ncnc32)cc2cccc(C)c2c1=O` [Compound 160] the figure was below 100 nM; with `Cc1cccc2cc([C@H](C)Nc3ncnc4[nH]nc(C(N)=O)c34)n(-c3ccccc3)c(=O)c12` [Compound 256], below 100 nM. The same measure for `Cc1ccccc1-n1c(Cn2nc(-c3ccc4nc(N)ncc4c3)c3c(N)ncnc32)cc2cccc(C)c2c1=O` [Compound 150]: below 100 nM; for `Cc1cccc2cc(Cn3nc(-c4ccc(Cl)c(O)c4)c4c(N)ncnc43)n(C3CCCC3)c(=O)c12` [Compound 71]: below 10000 nM. Consider `Cc1cccc2cc([C@H](C)Nc3nc(N)ncc3Cl)n(-c3ccccc3)c(=O)c12` [Compound 249], for which the EC50 is below 100 nM.

The compound `Cc1ccccc1-n1c(Cn2nc(-c3ccc(F)c(O)c3)c3c(N)ncnc32)cc2cccc(C)c2c1=O` [Compound 12] gave an EC50 below 100 nM.

In the case of `Cc1ccccc1-n1c(Cn2nc(-c3ccc4nc(N)sc4c3)c3c(N)ncnc32)cc2cccc(C)c2c1=O` [Compound 145], the EC50 is below 1000 nM.

As for `Cc1cccc2cc(Cn3nc(I)c4c(N)ncnc43)n(C3CCC3)c(=O)c12` [Compound 105], the EC50 was below 1000 nM. The same measure for `Cc1cccc2cc(Cn3nc(-c4ccc(Cl)c(O)c4)c4c(N)ncnc43)n(C(C)C)c(=O)c12` [Compound 123]: below 100 nM; for `CC(=O)Nc1nc2ccc(-c3nn(Cc4cc5cccc(Cl)c5c(=O)n4C4CC4)c4ncnc(N)c34)cc2s1` [Compound 156]: below 100 nM; for `Cc1cccnc1-n1c(Cn2nc(Cl)c3c(N)ncnc32)cc2cccc(C)c2c1=O` [Compound 18]: below 1000 nM. `Cc1cccc2cc([C@H](C)Nc3ncnc4[nH]cc(Br)c34)n(-c3ccccc3)c(=O)c12` [Compound 257] registered an EC50 below 100 nM.

`CC(=O)Nc1nc2ccc(-c3nn(Cc4cc5cccc(C)c5c(=O)n4-c4ccccc4C)c4ncnc(N)c34)cc2s1` [Compound 53] came in with an EC50 below 100 nM. With `Cc1ccccc1-n1c(Cn2cnc3c(N)ncnc32)cc2cccc(C)c2c1=O` [Compound 5] the figure was below 10000 nM; with `CCn1c(Cn2nc(-c3ccc4nc(NC(C)=O)sc4c3)c3c(N)ncnc32)cc2cccc(C)c2c1=O` [Compound 176], below 100 nM; with `Cc1ccccc1-n1c(Cn2nc(-c3ccc4oc(N)nc4c3)c3c(N)ncnc32)cc2cccc(C)c2c1=O` [Compound 151], below 100 nM. With `CCc1ccccc1-n1c(Cn2nc(I)c3c(N)ncnc32)cc2cccc(C)c2c1=O` [Compound 77] the figure was below 1000 nM; with `Cc1cccc2cc(Cn3nc(C#C[C@@H](C)O)c4c(N)ncnc43)n(-c3ccccc3F)c(=O)c12` [Compound 28], below 1000 nM; with `Cc1cccc2cc([C@H](C)Nc3ncnc4[nH]cnc34)n(C3CC3)c(=O)c12` [Compound 200], below 100 nM. With `Cc1cccc2cc(Cn3nc(I)c4c(N)ncnc43)n(-c3ccccc3F)c(=O)c12` [Compound 2] the figure was below 10000 nM; with `Cc1cccc2cc(Cn3nc(-c4ccc5nc(N)sc5c4)c4c(N)ncnc43)n(-c3ccccc3)c(=O)c12` [Compound 252], below 100 nM; with `Cc1cccc2cc(Cn3nc(I)c4c(N)ncnc43)n(-c3ccccc3OCCN3CCOCC3)c(=O)c12` [Compound 103], below 1000 nM. On to `Cc1cccc2cc(Cn3nc(I)c4c(N)ncnc43)n(C3CCCCC3)c(=O)c12` [Compound 87], for which the EC50 is below 10000 nM. `Cc1ccccc1-n1c(Cn2nc(-c3cccc(Cl)c3)c3c(N)ncnc32)cc2cccc(C)c2c1=O` [Compound 39] came in with an EC50 below 10000 nM. The same measure for `Cc1cccc2cc(Cn3nc(-c4cc(O)cc(F)c4)c4c(N)ncnc43)n(-c3ccccc3F)c(=O)c12` [Compound 3]: below 100 nM.

Compound `Cc1cccc2cc([C@H](C)Nc3ncnc4[nH]cc(F)c34)n(C3CC3)c(=O)c12` [Compound 278] had an EC50 below 100 nM.

As for `Cc1cccc2cc(Cn3nc(C#C[C@@H](C)O)c4c(N)ncnc43)n(C3CC3)c(=O)c12` [Compound 100], the EC50 was below 1000 nM. On to `Cc1cccc2cc(Cn3nc(-c4cccc(O)c4)c4c(N)ncnc43)n(-c3ccccc3F)c(=O)c12` [Compound 10], for which the EC50 is below 1000 nM. Turning to `CCc1ccccc1-n1c(Cn2nc(C#C[C@@H](C)O)c3c(N)ncnc32)cc2cccc(C)c2c1=O` [Compound 99], the half-maximal effective concentration (EC50) was below 100 nM. With `Cc1cccc2cc([C@H](C)Nc3ncnc4[nH]cc(C#N)c34)n(C3CC3)c(=O)c12` [Compound 289] the figure was below 100 nM; with `Cc1cccc2cc(C(C)Nc3ncnc4[nH]cnc34)n(-c3cccc(F)c3)c(=O)c12` (stereo not drawn) [Compound 229], below 100 nM. The same measure for `Cc1ccccc1-n1c(Cn2nc(-c3cc(O)cc(F)c3)c3c(N)ncnc32)cc2cccc(F)c2c1=O` [Compound 55]: below 100 nM; for `CCc1nn(Cc2cc3cccc(C)c3c(=O)n2-c2ccccc2C)c2ncnc(N)c12` [Compound 294]: below 1000 nM; for `Cc1cccc2cc(Cn3nc(Cl)c4c(N)ncnc43)n(-c3ccccc3F)c(=O)c12` [Compound 34]: below 1000 nM.

For `Cc1cccc2cc([C@H](C)Nc3ncnc4[nH]cnc34)n(C3CCC3)c(=O)c12` [Compound 198], the EC50 is below 100 nM. With `CCc1ccccc1-n1c(Cn2nc(-c3cn[nH]c3)c3c(N)ncnc32)cc2cccc(C)c2c1=O` [Compound 190] the figure was below 100 nM; with `CC(=O)Nc1nc2cc(-c3nn(Cc4cc5cccc(C)c5c(=O)n4-c4ccccc4C)c4ncnc(N)c34)ccc2o1` [Compound 251], below 100 nM; with `Cc1cccc2cc(Cn3nc(-c4cc(O)cc(F)c4)c4c(N)ncnc43)n(-c3ccccc3)c(=O)c12` [Compound 147], below 100 nM. The same measure for `Cc1ccccc1-n1c(Cn2nc(-c3ccc(O)c(Cl)c3)c3c(N)ncnc32)cc2cccc(C)c2c1=O` [Compound 25]: below 1000 nM. `Nc1ncnc2c1c(I)nn2Cc1cc2cccc(Cl)c2c(=O)n1C1CC1` [Compound 139] had an EC50 below 100 nM. Regarding `Cc1cccc2cc([C@H](C)Nc3nc(Cl)ncc3Cl)n(-c3ccccc3)c(=O)c12` [Compound 248], the EC50 was below 100 nM. With `Cc1cccc2cc(C(C)Nc3ncnc4[nH]cnc34)n(C3CCCC3)c(=O)c12` (stereo not drawn) [Compound 231] the figure was below 100 nM. The same measure for `Cc1ccccc1-n1c(Cn2nc(-c3ccc(F)cc3)c3c(N)ncnc32)cc2cccc(C)c2c1=O` [Compound 27]: below 10000 nM; for `Cc1ccccc1-n1c(Cn2nc(-c3cccc(O)c3)c3c(N)ncnc32)cc2cccc(C)c2c1=O` [Compound 13]: below 100 nM. Take `COc1ccc(-c2nn(Cc3cc4cccc(C)c4c(=O)n3-c3ccccc3F)c3ncnc(N)c23)cc1OC` [Compound 47]: the EC50 was below 1000 nM. Take `COc1cc(-c2nn(Cc3cc4cccc(C)c4c(=O)n3-c3ccccc3C)c3ncnc(N)c23)ccc1Cl` [Compound 21]: the EC50 was below 1000 nM. Compound `Cc1cccc2cc(Cn3nc(I)c4c(N)ncnc43)n(-c3ccccc3C(C)C)c(=O)c12` [Compound 75] showed an EC50 below 100 nM. Take `CCC(Nc1ncnc2[nH]cnc12)c1cc2cccc(C)c2c(=O)n1-c1cc(F)cc(F)c1` (stereo not drawn) [Compound 224]: the EC50 is below 100 nM.

`Cc1ccccc1-n1c(Cn2nc(-c3cccc(O)c3)c3c(N)nccc32)cc2cccc(C)c2c1=O` [Compound 119] gave an EC50 below 1000 nM. The same measure for `Cc1cccc2cc(Cn3nc(C#N)c4c(N)ncnc43)n(-c3ccccc3F)c(=O)c12` [Compound 169]: below 1000 nM; for `CNC(=O)Nc1nc2ccc(-c3nn(Cc4cc5cccc(C)c5c(=O)n4-c4ccccc4C)c4ncnc(N)c34)cc2s1` [Compound 148]: below 100 nM; for `Cc1cccc2cc(Cn3nc(-c4cccc(O)c4)c4c(N)ncnc43)n(-c3ccccc3O)c(=O)c12` [Compound 81]: below 100 nM. The same measure for `CC(=O)Nc1nc2ccc(-c3nn(Cc4cc5ccccc5c(=O)n4-c4ccccc4C)c4ncnc(N)c34)cc2s1` [Compound 168]: below 100 nM. `Cc1cccc2cc(Cn3nc(-c4ccc5oc(N)nc5c4)c4c(N)ncnc43)n(C3CCC3)c(=O)c12` [Compound 208]: the EC50 is below 100 nM.

For the compound `Cc1cccc2cc(Cn3nc(I)c4c(N)ncnc43)n(C3CC3)c(=O)c12` [Compound 86], the EC50 is below 1000 nM. In turn, `Cc1cccc2cc(C(C)Nc3ncnc4[nH]cnc34)n(CCN3CCCC3)c(=O)c12` (stereo not drawn) [Compound 233] returned an EC50 below 100 nM. `Cc1cccc2cc(Cn3nc(C(F)F)c4c(N)ncnc43)n(-c3ccccc3)c(=O)c12` [Compound 308] registered an EC50 below 100 nM. In turn, `Cc1cccc2cc(Cn3nc(I)c4c(N)ncnc43)n(-c3ccccc3O)c(=O)c12` [Compound 79] showed an EC50 below 1000 nM.

The values above are taken from US20140120060A1, “TREATMENT OF RHEUMATOID ARTHRITIS AND ASTHMA USING PI3 KINASE INHIBITORS” (INFINITY PHARMACEUTICALS, INC., priority 2012, published 2014).
